These results are taken from patent US20230219969A1 (priority 2020, published 2023).

Read-outs that look alike come from different tables or passages of the source.

The target in assay [1] is T1, 5HT2A (Homo sapiens, UniProt P28223). In words: Serotonin 5-HT2A in vitro radioligand binding competition assay ([3H]-DOI). Further details: purchased Epics Therapeutics S.A. (Belgium) FAST-0505B. The protocol:
Serotonin 5-HT2A In Vitro Radioligand Binding Competition Assay. The 5-HT2A radioligand binding competition assay was performed at Epics Therapeutics S.A. (Belgium, FAST-0505B) using conventional methods. Briefly, competition binding is performed in duplicate in the wells of a 96 well plate (Master Block, Greiner, 786201) containing binding buffer (optimized for each receptor), membrane extracts (amount of protein/well optimized for each receptor), radiotracer [^3H]-DOI (final concentration optimized for each receptor) and test compound. Nonspecific binding is determined by co-incubation with 200-fold excess of cold competitor. The samples are incubated in a final volume of 0.1 ml at a temperature and for a duration optimized for each receptor and then filtered over filter plates. Filters are washed six times with 0.5 ml of ice-cold washing buffer (optimized for each receptor) and 50 μl of Microscint 20 (Packard) are added in each well. The plates are incubated 15 min on an orbital shaker and then counted with a TopCount™ for 1 min/well.
(§1) The compounds provided herein were tested in the Serotonin 5-HT2A and 5-HT2C in vitro radioligand binding and cellular IPOne agonism assays. The binding and agonism functional potencies of several compound provided herein compounds (as indicated by their IC50s or EC50s) are shown in Table 11.

The target in assay [2] is T1, 5HT2A. In words: Serotonin 5-HT2A in vitro cellular IPOne agonism assay. Further details: host or cells: CHO-K1. Type of assay: cell-based. The protocol: Serotonin 5-HT2A In Vitro Cellular IPOne Agonism Assay. The 5-HT2A IPOne HTRF assay was performed at Epics Therapeutics S.A. (Belgium, FAST-0505I) using conventional methods. Briefly, CHO-K1 cells expressing human recombinant 5-HT2A receptor grown to mid-log phase in culture media without antibiotics were detached with PBS-EDTA, centrifuged, and resuspended in medium without antibiotics buffer. 20,000 cells are distributed in a 96 well plate and incubated overnight at 37° C. with 5% CO2.
For agonist testing, the medium is removed and 20 μl of assay buffer plus 20 μl of test compound or reference agonist are added in each well. The plate is incubated for 60 min. at 37° C. with 5% CO2.
After addition of the lysis buffer containing IP1-d2 and anti-IP1 cryptate detection reagents, plates are incubated 1-hour at room temperature, and fluorescence ratios are measured according to the manufacturer specification, with the HTRF kit.
as §1

The mark [3] stands for this setting: [3H]-DOI competition, membrane extracts, read-out: 5-HT2A Radioligand Binding Activity.
Where [4] appears, read: CHO-K1 cells, IPOne HTRF, read-out: 5-HT2A IPOne Agonism Activity.

T1 sequence (P28223 whole entry): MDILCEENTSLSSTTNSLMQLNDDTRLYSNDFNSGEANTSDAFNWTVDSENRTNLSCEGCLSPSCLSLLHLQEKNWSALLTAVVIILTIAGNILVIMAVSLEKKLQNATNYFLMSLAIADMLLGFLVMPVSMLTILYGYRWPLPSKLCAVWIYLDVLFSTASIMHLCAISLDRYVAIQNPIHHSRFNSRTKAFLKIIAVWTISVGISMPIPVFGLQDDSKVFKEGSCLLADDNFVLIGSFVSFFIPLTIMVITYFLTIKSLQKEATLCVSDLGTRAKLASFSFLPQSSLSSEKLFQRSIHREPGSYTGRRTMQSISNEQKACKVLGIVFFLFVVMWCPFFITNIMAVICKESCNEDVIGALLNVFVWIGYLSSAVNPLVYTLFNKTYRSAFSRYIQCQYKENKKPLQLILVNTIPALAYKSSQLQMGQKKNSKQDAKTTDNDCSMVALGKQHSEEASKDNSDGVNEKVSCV

With `COc1ccc2c(c1)CN(CCN(C)C)C2` [Example 10, 2-(5-methoxyisoindolin-2-yl)-N,N-dimethylethan-1-amine], the IC50 at 5HT2A [1] (setting [3]) was in the range of 1 to 10 µM. The EC50 at 5HT2A [2] (setting [4]) is above 10 µM.
`COc1ccc2c(c1)CCN(CCN(C)C)C2` [Example 11, 2-(6-methoxy-3,4-dihydroisoguinolin-2(1H)-yl)-N,N-dimethylethan-1-amine]: at 5HT2A [1] (setting [3]), the IC50 was 0.101 to 1 µM. The EC50 at 5HT2A [2] (setting [4]) is above 10 µM.
As to `CN(C)C(C)(C)Cn1ccc2c(F)c(F)ccc21` [Example 12, 1-(4,5-difluoro-1H-indol-1-yl)-N,N,2-trimethylpropan-2-amine], the IC50 on 5HT2A [1] (setting [3]) is above 10 µM. Further, the EC50 at 5HT2A [2] (setting [4]) was above 10 µM.
Take `Cc1cn(CC(C)(C)N(C)C)c2ccc(F)cc12` [Example 13, 1-(5-fluoro-3-methyl-1H-indol-1-yl)-N,N,2-trimethylpropan-2-amine]: at 5HT2A [1] (setting [3]), the IC50 was above 10 µM. In addition, the EC50 at 5HT2A [2] (setting [4]) was in the range of 1 to 10 µM.
As for `CN(C)C(C)(C)Cn1ccc2cc(F)ccc21` [Example 14, 1-(5-fluoro-1H-indol-1-yl)-N,N,2-trimethylpropan-2-amine], the IC50 on 5HT2A [1] (setting [3]) is above 10 µM. In addition, at 5HT2A [2] (setting [4]), the EC50 was above 10 µM.
As for `COc1ccc2c(ccn2CC(C)(C)N(C)C)c1F` [Example 15, 1-(4-fluoro-5-methoxy-1H-indol-1-yl)-N,N,2-trimethylpropan-2-amine], on 5HT2A [1] (setting [3]), the IC50 was above 10 µM. The EC50 on 5HT2A [2] (setting [4]) was above 10 µM.
Turning to `COc1cc2ccn(CC(C)(C)N(C)C)c2cc1F` [Example 16, 1-(6-fluoro-5-methoxy-1H-indol-1-yl)-N,N,2-trimethylpropan-2-amine], the IC50 at 5HT2A [1] (setting [3]) is above 10 µM. Also, the EC50 on 5HT2A [2] (setting [4]) is above 10 µM.
Consider `COc1cc(F)c2c(ccn2CC(C)(C)N(C)C)c1` [Example 17, 1-(7-fluoro-5-methoxy-1H-indol-1-yl)-N,N,2-trimethylpropan-2-amine], for which the IC50 on 5HT2A [1] (setting [3]) was above 10 µM. Moreover, at 5HT2A [2] (setting [4]), the EC50 is above 10 µM.
With `CN(C)C(C)(C)Cn1ccc2c(F)cccc21` [Example 18, 1-(4-fluoro-1H-indol-1-yl)-N,N,2-trimethylpropan-2-amine], the IC50 at 5HT2A [1] (setting [3]) was above 10 µM. In addition, the EC50 at 5HT2A [2] (setting [4]) was above 10 µM.
Take `CN(C)C(C)(C)Cn1ccc2ccc(F)cc21` [Example 19, 1-(6-fluoro-1H-indol-1-yl)-N,N,2-trimethylpropan-2-amine]: the IC50 at 5HT2A [1] (setting [3]) is above 10 µM. Moreover, at 5HT2A [2] (setting [4]), the EC50 was above 10 µM.
As for `CN(C)C(C)(C)Cn1ccc2cccc(F)c21` [Example 20, 1-(7-fluoro-1H-indol-1-yl)-N,N,2-trimethylpropan-2-amine], at 5HT2A [1] (setting [3]), the IC50 was above 10 µM. In addition, the EC50 at 5HT2A [2] (setting [4]) is above 10 µM.
`COc1ccc2c(ccn2CC(C)(C)N(C)C)n1` [Example 21, 1-(5-methoxy-1H-pyrrolo[3,2-b]pyridin-1-yl)-N,N,2-trimethylpropan-2-amine]: on 5HT2A [1] (setting [3]), the IC50 was above 10 µM. Besides, the EC50 on 5HT2A [2] (setting [4]) is above 10 µM.
`COc1cc2ccn(CC(C)(C)N(C)C)c2cn1` [Example 22, 1-(5-methoxy-1H-pyrrolo[2,3-c]pyridin-1-yl)-N,N,2-trimethylpropan-2-amine]: the IC50 at 5HT2A [1] (setting [3]) was above 10 µM. Also, on 5HT2A [2] (setting [4]), the EC50 was above 10 µM.
For `COc1ncc2c(ccn2CC(C)(C)N(C)C)n1` [Example 23, 1-(2-methoxy-5H-pyrrolo[3,2-d]pyrimidin-5-yl)-N,N,2-trimethylpropan-2-amine], the IC50 at 5HT2A [1] (setting [3]) is above 10 µM. On 5HT2A [2] (setting [4]), the EC50 was above 10 µM.
On to `C[C@@H](N)Cn1ccc2cncnc21` [Example 26, (R)-1-(7H-pyrrolo[2,3-d]pyrimidin-7-yl)propan-2-amine], for which the IC50 on 5HT2A [1] (setting [3]) was above 10 µM. Further, the EC50 on 5HT2A [2] (setting [4]) lay within 1 to 10 µM.
As to `COc1cnc2c(ccn2C[C@@H](C)N)c1` [Example 34, (R)-1-(5-methoxy-1H-pyrrolo[2,3-b]pyridin-1-yl)propan-2-amine], the IC50 on 5HT2A [1] (setting [3]) is above 10 µM. On 5HT2A [2] (setting [4]), the EC50 is 1 to 10 µM.
In the same order, the values of `CN[C@H](C)Cn1ccc2cc(OC)cnc21` [Example 35, (R)-1-(5-methoxy-1H-pyrrolo[2,3-b]pyridin-1-yl)-N-methylpropan-2-amine] are above 10 µM and above 10 µM.
As for `C[C@@H](N)Cn1ccc2cnccc21` [Example 37, (R)-1-(1H-pyrrolo[3,2-c]pyridin-1-yl)propan-2-amine], the IC50 at 5HT2A [1] (setting [3]) is above 10 µM. For the same molecule, the EC50 on 5HT2A [2] (setting [4]) was above 10 µM.
Consider `CN[C@H](C)Cn1ccc2cnccc21` [Example 38, (R)—N-methyl-1-(1H-pyrrolo[3,2-c]pyridin-1-yl)propan-2-amine], for which the IC50 on 5HT2A [1] (setting [3]) is above 10 µM. Further, at 5HT2A [2] (setting [4]), the EC50 is above 10 µM.
Consider `Cc1cn(CC(C)(C)N)c2ccc(F)cc12` [Example 40, 1-(5-fluoro-3-methyl-1H-indol-1-yl)-2-methylpropan-2-amine], for which the IC50 at 5HT2A [1] (setting [3]) lay in the range of 1 to 10 µM. Moreover, the EC50 on 5HT2A [2] (setting [4]) lay within 1 to 10 µM.
With `CC(C)(N)Cn1ccc2c(F)c(F)ccc21` [Example 41, 1-(4,5-difluoro-1H-indol-1-yl)-2-methylpropan-2-amine], the IC50 on 5HT2A [1] (setting [3]) lay in the range of 1 to 10 µM. Besides, the EC50 at 5HT2A [2] (setting [4]) was 1 to 10 µM.
With `COc1ccc2c(ccn2CC(C)(C)N)c1` [Example 42, 1-(5-methoxy-1H-indol-1-yl)-2-methylpropan-2-amine], on 5HT2A [1] (setting [3]), the IC50 is above 10 µM. Moreover, the EC50 on 5HT2A [2] (setting [4]) is 1 to 10 µM.
In the same order, the values of `CN(C)CC(=O)n1ccc2cc(F)ccc21` [Example 43, 2-(dimethylamino)-1-(5-fluoro-1H-indol-1-yl)ethan-1-one] are above 10 µM and above 10 µM.
As to `CN(C)CC(=O)n1ccc2ccccc21` [Example 44, 2-(dimethylamino)-1-(1H-indol-1-yl)ethan-1-one], the IC50 at 5HT2A [1] (setting [3]) was above 10 µM. Further, the EC50 on 5HT2A [2] (setting [4]) was above 10 µM.
On 5HT2A [1], `C[C@H](C(=O)n1ccc2ccccc21)N(C)C` [Example 46, (R)-2-(dimethylamino)-1-(1H-indol-1-yl)propan-1-one] gave an IC50 above 10 µM. In addition, at 5HT2A [2], the EC50 was above 10 µM.
`C[C@H](C(=O)n1ccc2cc(F)ccc21)N(C)C` [Example 48, (R)-2-(dimethylamino)-1-(5-fluoro-1H-indol-1-yl)propan-1-one] had an IC50 at 5HT2A [1] above 10 µM. The molecule also displayed an EC50 at 5HT2A [2] above 10 µM.
